Data from US8951752B2, “N-demethyase genes and uses thereof” (priority 2011, dated 2015).

What was measured:
[1] = target: T1, NdmA-His6 (Pseudomonas putida, UniProt H9N289); assay: Methylxanthine N-demethylase assay and kinetics, NdmA-His6 with His6-NdmD; format: biochemical, Pseudomonas putida CBB5
T1 construct: made in house; host or cells: E. coli BL21(DE3)
T1 sequence (H9N289 1-351): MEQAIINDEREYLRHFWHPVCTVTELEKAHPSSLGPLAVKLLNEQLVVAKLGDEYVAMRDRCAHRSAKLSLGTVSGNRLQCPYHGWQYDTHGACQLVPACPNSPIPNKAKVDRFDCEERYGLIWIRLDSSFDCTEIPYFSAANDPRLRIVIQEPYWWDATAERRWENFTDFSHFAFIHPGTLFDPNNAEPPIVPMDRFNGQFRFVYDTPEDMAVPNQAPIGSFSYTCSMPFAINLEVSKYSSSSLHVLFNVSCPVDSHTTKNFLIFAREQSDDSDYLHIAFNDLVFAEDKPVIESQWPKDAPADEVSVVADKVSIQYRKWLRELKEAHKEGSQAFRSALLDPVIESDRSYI
Protocol: (§1) Methylxanthine N-demethylase activity assay contained, in 1-ml total volume, 0.5 mM methylxanthine, 1 mM NADH, 50 μM Fe(NH4)2(SO4)2, and an appropriate amount of NdmA-His6 or NdmB-His6 (7.4 μg-2.5 mg protein depending on substrate specificity) in 50 mM KPi buffer (pH 7.5). Approximately 4 U of partially purified reductase, prepared as described previously (Summers et al., 2011) or 59 U of purified His6-NdmD was added to reaction mixture. Catalase from bovine liver (4,000 U) was also added to reactions containing His6-NdmD. The reaction mixture was incubated at 30° C. with 300 rpm shaking on an incubating microplate shaker (VWR, Radnor, Pa.). Periodically, a small aliquot was sampled from the reaction mixture and mixed with equal volume of acetonitrile for quantifying concentrations of methylxanthines and N-demethylated products by HPLC. One unit of N-demethylase activity was defined as the consumption of one […] methylxanthine per minute.
(§2) Apparent kinetic parameters of NdmA-His6 and NdmB-His6 were determined by measuring the initial rate of disappearance (vo) of methylxanthines in 50 mM KPi buffer (pH 7.5) at 30° C. The initial substrate concentrations (ESI) used in these experiments were from 25 to 500 μM. Substrates were incubated with His6-NdmD plus either NdmA-His6 or NdmB-His6 under standard conditions for 15 minutes. At 1, 5, 10, and 15 minutes, samples were removed from the reaction mixtures to quantitate substrate concentrations by HPLC. Plots of substrate concentrations against time were used to determine the initial rates of disappearance of substrates which were linear over 15 minutes. The apparent kinetic parameters were determined from Michaelis-Menten plots of vo against [S] fitted with the equation

[2] = target: T2, NdmB-His6 (Pseudomonas putida, UniProt H9N290); assay: Methylxanthine N-demethylase assay and kinetics, NdmB-His6 with His6-NdmD; format: biochemical, Pseudomonas putida CBB5; conditions: NdmB-His6
T2 construct: made in house; host or cells: E. coli BL21(DE3)
T2 sequence (H9N290 1-355): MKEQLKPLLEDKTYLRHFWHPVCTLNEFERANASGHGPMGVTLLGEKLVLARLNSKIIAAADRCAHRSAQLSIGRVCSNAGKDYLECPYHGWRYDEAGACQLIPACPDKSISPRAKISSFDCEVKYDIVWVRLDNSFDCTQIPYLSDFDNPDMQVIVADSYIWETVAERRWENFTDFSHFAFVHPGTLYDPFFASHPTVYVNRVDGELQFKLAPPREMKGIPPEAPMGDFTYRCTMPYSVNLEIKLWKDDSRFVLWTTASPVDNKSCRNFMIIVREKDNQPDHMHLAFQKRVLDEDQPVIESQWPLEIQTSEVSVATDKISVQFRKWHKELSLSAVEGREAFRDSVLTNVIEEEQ
Protocol: as §1, §2

[3] = target: T3, Caffeine dehydrogenase (Cdh) from CBB1 (Pseudomonas sp., UniProt D7REY3); conditions: cited from earlier work
T3 sequence (D7REY3 1-791): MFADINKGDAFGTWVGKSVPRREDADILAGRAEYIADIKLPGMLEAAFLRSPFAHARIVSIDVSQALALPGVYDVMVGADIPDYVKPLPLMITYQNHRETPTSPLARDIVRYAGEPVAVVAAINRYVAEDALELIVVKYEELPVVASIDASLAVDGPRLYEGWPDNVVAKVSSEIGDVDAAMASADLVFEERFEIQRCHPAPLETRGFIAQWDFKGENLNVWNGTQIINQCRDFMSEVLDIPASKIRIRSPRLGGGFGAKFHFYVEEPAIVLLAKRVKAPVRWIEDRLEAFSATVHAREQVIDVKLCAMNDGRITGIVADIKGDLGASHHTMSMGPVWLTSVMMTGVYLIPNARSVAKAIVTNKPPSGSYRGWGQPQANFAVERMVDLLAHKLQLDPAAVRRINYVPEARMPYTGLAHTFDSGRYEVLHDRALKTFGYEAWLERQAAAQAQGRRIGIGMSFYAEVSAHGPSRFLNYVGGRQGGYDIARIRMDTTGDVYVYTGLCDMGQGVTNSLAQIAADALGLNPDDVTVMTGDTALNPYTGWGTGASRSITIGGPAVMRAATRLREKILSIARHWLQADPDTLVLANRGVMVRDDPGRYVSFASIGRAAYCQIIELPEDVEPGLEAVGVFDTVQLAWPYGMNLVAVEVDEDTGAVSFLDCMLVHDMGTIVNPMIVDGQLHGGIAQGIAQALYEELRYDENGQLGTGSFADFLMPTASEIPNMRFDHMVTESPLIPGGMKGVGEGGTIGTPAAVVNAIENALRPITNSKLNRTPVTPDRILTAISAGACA
T3 sequence (D7REY4 1-295 partner): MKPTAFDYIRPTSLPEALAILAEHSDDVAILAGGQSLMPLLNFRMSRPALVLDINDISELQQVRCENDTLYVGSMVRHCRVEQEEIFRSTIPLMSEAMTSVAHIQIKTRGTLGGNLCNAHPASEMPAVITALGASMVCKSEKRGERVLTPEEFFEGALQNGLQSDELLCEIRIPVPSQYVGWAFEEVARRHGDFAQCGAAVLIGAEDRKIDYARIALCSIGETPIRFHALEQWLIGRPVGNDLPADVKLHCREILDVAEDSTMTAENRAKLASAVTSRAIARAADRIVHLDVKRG
T3 sequence (D7REY5 1-167 partner): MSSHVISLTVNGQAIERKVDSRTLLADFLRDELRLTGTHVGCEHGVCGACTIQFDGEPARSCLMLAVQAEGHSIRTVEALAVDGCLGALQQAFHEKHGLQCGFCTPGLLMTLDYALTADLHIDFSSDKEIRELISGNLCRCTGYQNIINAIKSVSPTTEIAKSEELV

[4] = tested on: NdmC
[5] = tested on: cell extracts prepared from P. putida CBB5; assay: NADH-dependent N-demethylase activity of CBB5 cell extracts; format: biochemical, Pseudomonas putida CBB5; conditions: 0.5 mM substrate, 7.2 mg mL^−1 protein

For Cn1cnc2c1c(=O)[nH]c(=O)n2C [Theobromine, 3,7-dimethylxanthine], the “N-demethylase activity” value ([1]; NdmA) was “inactive”, the Km ([1]; NdmA-His6, 30° C., pH 7.5, ∞ where no activity) was “∞” and the Product [2] was 7-methylxanthine. The “preference as a substrate, times less than caffeine” value [3] was 50 times, the “N-demethylation by NdmC fraction” value [4] was “not N-demethylated” and the “degradation rate compared with paraxanthine” value [5] was “significantly slower”.
